For data set [1], the system named is HBV. The data set can be described thus: Anti-viral assay in HepG2.2.15 cells: HBV inhibitory activity (HBV DNA in culture medium by q-PCR). It counts as cell-based. The note with it: Hepatitis B virus, HepG2.2.15, 144 h. The source says:
(§1) Example 2: Anti-Viral Assay in HepG2.2.15 Cells
(§2) 1.1. Cell Line • HepG2.2.15 (the HepG2.2.15 cell line can be produced by transfection of the HepG2 cell line as described in Sells, Chen, and Acs 1987 (Proc. Natl. Acad. Sci. USA 84:1005-1009), and the HepG2 cell line is available from ATCC® under number HB-8065™). Reagents • DMEM/F12 (INVITROGEN-11330032) • FBS (GIBCO-10099-141) • Dimethyl sulfoxide(DMSO) (SIGMA-D2650) • Penicillin-streptomycin solution (HYCLONE-SV30010) • NEAA (INVITROGEN-1114050) • L-Glutamine (INVITROGEN-25030081) • Geneticin Selective Antibiotic (G418, 500 mg/ml) (INVITROGEN-10131027) • Trypsinase digestion solution (INVITROGEN-25300062) • CCK8 (BIOLOTE-35004) • QIAamp 96 DNA Blood Kit (12) (QIAGEN-51162) • FastStart Universal Probe Mast Mix (ROCHE-04914058001)
(§3) 2.1. HBV Inhibitory Activity and Cytotoxicity Determination
(§4) Seed the cell HepG2.2.15 cells into 96-well plate in 2% FBS culture medium at the density of 40,000 cells/well and 5,000 cells/well for HBV inhibitory activity and cytotoxicity determination, respectively. After seeding, incubate the cell plates at 37° C., 5% CO2 overnight. The next day, medium containing compounds is added to the cell to treat the cells for 6 days with medium refreshed once in the middle of the treatment. 8 dose points with 3 folds dilution of each compound were adopted and the highest concentration of the compounds is 10 uM and 100 uM for HBV inhibitory activity and cytotoxicity determination, respectively.
The HBV DAN change in the cell culture medium induced by the compounds is measured by q-PCR method. Briefly, the HBV DNA in the culture medium is extracted using QIAamp 96 DNA Blood Kit according to the manual and then quantified by q-PCR using the primers and probe in the table below.
(§5) EC50 and CC50 values are calculated by the GRAPHPAD PRISM software.

Data set [2] is described as follows: Cytotoxicity determination in HepG2.2.15 cells (CCK-8). It counts as cell-based. The note with it: human, 6 days treatment, CCK-8, highest concentration 100 uM.
From the text: as §1, §2, §3, §4
After 6 days of compounds treatment, add 20 μl CCK-8 reagents to each well of cytotoxicity assay plates, incubate the plate at 37° C., 5% CO2 for 2.5 h and measure the absorbance at 450 nm wavelength, at the same time read the absorbance at 630 nm wavelength as reference.
as §5

Where [3] appears, read: HepG2.2.15 cells, 6 days treatment, HBV DNA in culture medium by q-PCR, highest concentration 10 uM, read-out: EC50.

Where two headings read alike, the source gives them in different places.

As for `CCOC(=O)C1=C(C2CCN(c3cc(C(F)(F)F)c(C(=O)O)cn3)CC2)NC(c2nccs2)=NC1c1ccc(F)c(F)c1Cl` (single isomer, unassigned) [II-44-B, 6-(4-(6-(2-Chloro-3,4-difluorophenyl)-5-(ethoxycarbonyl)-2-(thiazol-2-yl)-3,6-dihydropyrimidin-4-yl)piperidin-1-yl)-4-(trifluoromethyl)nicotinic Acid], the concentration for a half-maximal effect (EC50) (commonly the midpoint of the concentration-response curve) in data set [1] (setting [3]) worked out at 7.6 nM. Besides, the CC50 (in general, the concentration at which the toxic effect on the cells reaches its halfway point) at 6 days in data set [2] stood at 4.77 µM.

With `CCOC(=O)C1=C(C2CCN(c3nc(C(=O)OCC)co3)C2)NC(c2nccs2)=NC1c1ccc(F)c(F)c1Cl` (single isomer, unassigned) [XI-85-M, Ethyl 2-(3-(6-(2-chloro-3,4-difluorophenyl)-5-(ethoxycarbonyl)-2-(thiazol-2-yl)-3,6-dihydropyrimidin-4-yl)pyrrolidin-1-yl)oxazole-4-carboxylate], the EC50 in data set [1] (setting [3]) stood at 770 nM. The same compound returned a CC50 at 6 days in data set [2] of 11.6 µM.

Regarding `CCOC(=O)C1=C(C2CCN(c3ccc(C(=O)O)cc3)CC2)NC(c2nccs2)=NC1c1ccc(F)c(F)c1Cl` (single isomer, unassigned) [II-35-A, 4-(4-(6-(2-Chloro-3,4-difluorophenyl)-5-(ethoxycarbonyl)-2-(thiazol-2-yl)-3,6-dihydropyrimidin-4-yl)piperidin-1-yl)benzoic Acid], the 50% effective concentration (EC50) in data set [1] (setting [3]) was 20 nM. In data set [2], this compound came in with a 50% cytotoxic concentration (CC50) at 6 days of 3.96 µM.

For `CCOC(=O)C1=C(C2CCN(c3cc(C(=O)O)nc(C)n3)CC2)NC(c2nccs2)=NC1c1ccc(F)c(F)c1Cl` (single isomer, unassigned) [II-53-B, 6-(4-(6-(2-Chloro-3,4-difluorophenyl)-5-(ethoxycarbonyl)-2-(thiazol-2-yl)-3,6-dihydropyrimidin-4-yl)piperidin-1-yl)-2-methylpyrimidine-4-carboxylic Acid], the EC50 in data set [1] (setting [3]) turned out to be 98 nM. In addition, in data set [2], the CC50 at 6 days came out at 9.05 µM.

As to `COC(=O)C1=C([C@H]2CC[C@H](c3nc(C(=O)O)co3)CC2)NC(c2nccs2)=NC1c1cccc(F)c1C` (single isomer, unassigned) [Compound I-3-D, trans-2-(4-(6-(3-Fluoro-2-methylphenyl)-5-(methoxycarbonyl)-2-(thiazol-2-yl)-3,6-dihydropyrimidin-4-yl)cyclohexyl)oxazole-4-carboxylic Acid], the EC50 in data set [1] (setting [3]) was 140 nM. In data set [2], this compound showed a 50% cytotoxic concentration (CC50) at 6 days of 14.2 µM.

Consider `COC(=O)C1=C(C23CC(c4nc(C(=O)O)co4)(C2)C3)NC(c2nccs2)=NC1c1ccc(F)c(F)c1Cl` (single isomer, unassigned) [Compound I-8-B, 2-(3-(6-(2-Chloro-3,4-difluorophenyl)-5-(methoxycarbonyl)-2-(thiazol-2-yl)-3,6-dihydropyrimidin-4-yl)bicyclo[1.1.1]pentan-1-yl)oxazole-4-carboxylic Acid], for which the EC50 in data set [1] (setting [3]) turned out to be 51 nM. This compound also returned a CC50 at 6 days in data set [2] of 26.6 µM.

`COC(=O)C1=C(C2CCN(c3ncc(C(=O)O)s3)CC2)NC(c2nccs2)=NC1c1ccc(F)cc1Cl` (single isomer, unassigned) [II-19-A, 2-(4-(6-(2-Chloro-4-fluorophenyl)-5-(methoxycarbonyl)-2-(thiazol-2-yl)-3,6-dihydropyrimidin-4-yl)piperidin-1-yl)thiazole-5-carboxylic Acid]: the EC50 in data set [1] (setting [3]) was determined as 6.4 nM. The compound further showed a CC50 at 6 days in data set [2] of 19.3 µM.

`CCOC(=O)C1=C(C2CCN(c3cccc(C(=O)O)n3)CC2)NC(c2nccs2)=NC1c1ccc(F)c(F)c1Cl` (single isomer, unassigned) [II-37-B, 6-(4-(6-(2-Chloro-3,4-difluorophenyl)-5-(ethoxycarbonyl)-2-(thiazol-2-yl)-3,6-dihydropyrimidin-4-yl)piperidin-1-yl)picolinic Acid]: the EC50 in data set [1] (setting [3]) amounted to 61 nM. This compound also returned a CC50 at 6 days in data set [2] of 6.41 µM.

`COC(=O)C1=C(C2CCN(c3ncc(C(=O)O)s3)CC2)NC(c2nccs2)=NC1c1ccc(F)c(F)c1Cl` (single isomer, unassigned) [II-30-B, 2-(4-(6-(2-Chloro-3,4-difluorophenyl)-5-(methoxycarbonyl)-2-(thiazol-2-yl)-3,6-dihydropyrimidin-4-yl)piperidin-1-yl)thiazole-5-carboxylic Acid]: the EC50 in data set [1] (setting [3]) stood at 7.2 nM. This compound also came in with a cytotoxic concentration (CC50) at 6 days in data set [2] of 16 µM.

For the compound `CCOC(=O)C1=C(C2CCN(c3cc(C(=O)O)nc(OC)n3)CC2)NC(c2nccs2)=NC1c1ccc(F)c(F)c1Cl` (single isomer, unassigned) [II-52-B, 6-(4-(6-(2-Chloro-3,4-difluorophenyl)-5-(ethoxycarbonyl)-2-(thiazol-2-yl)-3,6-dihydropyrimidin-4-yl)piperidin-1-yl)-2-methoxypyrimidine-4-carboxylic Acid], in data set [1] (setting [3]), the EC50 came to 51 nM. It took 3.7 µM to reach half-maximal cytotoxicity in data set [2] (CC50 at 6 days).

As to `COC(=O)C1=C(C2CCN(C(=O)c3cn[nH]c3)CC2)NC(c2nccs2)=NC1c1ccc(F)cc1Cl` (single isomer, unassigned) [II-11-X, Methyl 6-(1-(1H-pyrazole-4-carbonyl)piperidin-4-yl)-4-(2-chloro-4-fluorophenyl)-2-(thiazol-2-yl)-1,4-dihydropyrimidine-5-carboxylate], in data set [1] (setting [3]), the EC50 stood at 58 nM. In data set [2], this compound displayed a CC50 at 6 days of 16.2 µM.

For `COC(=O)C1=C(C2CN(C(=O)c3cnoc3C)C2)NC(c2nccs2)=NC1c1ccc(F)cc1Cl` (single isomer, unassigned) [II-88-B, methyl 4-(2-chloro-4-fluorophenyl)-6-(1-(5-methylisoxazole-4-carbonyl)azetidin-3-yl)-2-(thiazol-2-yl)-1,4-dihydropyrimidine-5-carboxylate], the EC50 in data set [1] (setting [3]) is 2050 nM. Moreover, in data set [2], the CC50 at 6 days stood at 9.96 µM.

Take `CCOC(=O)C1=C(C2CCN(c3nc(C)c(C(=O)O)o3)CC2)NC(c2nccs2)=NC1c1ccc(F)c(F)c1Cl` (single isomer, unassigned) [II-64-B, Lithium 2-(4-(6-(2-chloro-3,4-difluorophenyl)-5-(ethoxycarbonyl)-2-(thiazol-2-yl)-3,6-dihydropyrimidin-4-yl)piperidin-1-yl)-4-methyloxazole-5-carboxylate]: the EC50 in data set [1] came to 75 nM. The CC50 at 6 days in data set [2] turned out to be 6.84 µM.

`COC(=O)C1=C([C@H]2CC[C@H](c3nc(CC(=O)O)co3)CC2)NC(c2nccs2)=NC1c1cccc(F)c1C` (single isomer, unassigned) [Compound I-21-B, (trans)-2-(2-(4-(6-(3-Fluoro-2-methylphenyl)-5-(methoxycarbonyl)-2-(thiazol-2-yl)-3,6-dihydropyrimidin-4-yl)cyclohexyl)oxazol-4-yl)acetic Acid]: in data set [1] (setting [3]), the concentration giving a half-maximal response (EC50) stood at 57 nM. In data set [2], this compound registered a cytotoxic concentration (CC50) at 6 days of 8.04 µM.

`COC(=O)C1=C(C2CCN(c3ncc(CC(=O)O)cn3)CC2)NC(c2nccs2)=NC1c1cccc(F)c1C` (single isomer, unassigned) [II-6-B, 2-(2-(4-(6-(3-Fluoro-2-methylphenyl)-5-(methoxycarbonyl)-2-(thiazol-2-yl)-3,6-dihydropyrimidin-4-yl)piperidin-1-yl)pyrimidin-5-yl)acetic Acid]: the EC50 in data set [1] (setting [3]) was 5.7 nM. This compound also registered a cytotoxic concentration (CC50) at 6 days in data set [2] of 5.42 µM.

As to `COC(=O)C1=C(C2CCN(c3ncc(CC(=O)O)cn3)CC2)NC(c2nccs2)=NC1c1ccc(F)c(F)c1C` (single isomer, unassigned) [II-1-B, 2-(2-(4-(6-(3,4-Difluoro-2-methylphenyl)-5-(methoxycarbonyl)-2-(thiazol-2-yl)-3,6-dihydropyrimidin-4-yl)piperidin-1-yl)pyrimidin-5-yl)acetic Acid], in data set [1] (setting [3]), the EC50 was below 4.6 nM. This compound yielded a 50% cytotoxic concentration (CC50) at 6 days in data set [2] of 4.97 µM.

Regarding `CCOC(=O)C1=C(C2CCN(c3ncc(C(=O)O)cc3F)CC2)NC(c2nccs2)=NC1c1ccc(F)c(F)c1Cl` (single isomer, unassigned) [II-45-B, 6-(4-(6-(2-Chloro-3,4-difluorophenyl)-5-(ethoxycarbonyl)-2-(thiazol-2-yl)-3,6-dihydropyrimidin-4-yl)piperidin-1-yl)-5-fluoronicotinic Acid], the EC50 in data set [1] (setting [3]) came out at 8.7 nM. The compound also gave a CC50 at 6 days in data set [2] of 4.43 µM.

As for `CCOC(=O)C1=C(C2CCN(c3ncc(C)c(C(=O)O)n3)CC2)NC(c2nccs2)=NC1c1ccc(F)c(F)c1Cl` (single isomer, unassigned) [II-63-B, 2-(4-(6-(2-Chloro-3,4-difluorophenyl)-5-(ethoxycarbonyl)-2-(thiazol-2-yl)-3,6-dihydropyrimidin-4-yl)piperidin-1-yl)-5-methylpyrimidine-4-carboxylic Acid], the EC50 in data set [1] (setting [3]) came to 21 nM. In data set [2], this compound showed a CC50 at 6 days of 8.28 µM.

For the origin of these results see patent US11053235B2, “Substituted 1,4-dihydropyrimidines for the treatment of HBV infection or HBV-induced diseases” (Janssen Sciences Ireland Unlimited Company, priority 2018, dated 2021).
